# Measured values as given in patent publication US20210330696A1, “A HIGH CAPACITY PLATFORM FOR IMMUNOGENIC CANCER CELL DEATH” (priority 2018, published 2021).
# Columns and labels:
# DNA = conditions: cited from earlier work
# cancer cells = conditions: cited from earlier work
# [1] = cited from earlier work
# [2] = mouse, in vivo; cited from earlier work
# glioblastoma cells = conditions: 2 h after injection; cited from earlier work
# tumor immunocytes = tumor immunocytes by flow cytometry after IL-12; assay type: in vivo; conditions: 24 h after treatment
# Source text: FIGS. 21A-B. Tumor immunocytes. A) Flow cytometry dot blots showing gating for myeloid and T cell populations. B) Percent immunocytes in control vs IL-12 treated tumors.
# Tumor phenotyping. Flow cytometry and immunohistochemistry are used to characterize PD-L1 expression and the presence of effector and regulatory T cells, myeloid and DC, vascularity and stromal cells in tumors and lymphatic tissue. Immunosuppressive regulators in the tumor include T regulatory (Treg) and […] (MDSC). Tregs (CD4^+/FoxP3^+) and MDSC [CD11b^+/Gr-1(Ly6-CIG)^+] suppress effective antitumor immune responses. CD4^+ and CD8^+ T cells are the primary adaptive immune cell mediators within the tumor and the proportion of T cell subsets and DC present in the tumor plays a critical role in tumor rejection. […] Single cell suspensions are prepared from tumors and spleen. After Fc receptor blockade with anti-CD16/CD32 antibodies in 1% mouse serum/1 mM EDTA, cells are permeabilized for intracellular staining or stained directly with antibodies identifying discrete immune cell populations, as described below. […] Specificity of binding to naïve or memory/effector cells is evaluated using fluorescent antibodies that recognize CD45RA, CCR7, and FOXP3. […] Apoptotic tumor cells are detected using DeadEnd Colorimetric TUNEL System, and proliferating cells will be identified using Ki-67. […]
# 4T1 tumor = test: 19F MRI of 4T1 tumor infiltration by myeloid cells (V-Sense); assay type: in vivo; conditions: 48 h post intratumoral injection, compared to PBS
# Protocol: FIG. 17. MR imaging of 4T1 tumor infiltration by myeloid cells. The perfluorocarbon emulsion V-Sense was injected intravascularly and carrier macrophages were imaged by 19F MRI 48 h post control or IL-12 intraturrioral injection.
# V-sense is a commercial ^19F-perfluorocarbon emulsion used to track macrophage infiltration into inflammatory tissues. Ahrens et al. (2011) successfully quantified V-sense in inflamed tissues of the central nervous system in an […] model of allergic encephalomyelitis, which they correlated with immunohistochemistry to confirm co-localization of V-sense emulsion droplets and macrophages. Hitchens et al. (2011) detected V-sense labeled macrophages in a model of cardiac allograft rejection. In FIG. 12, the ^19F contrast in tumors is shown based on infiltration of V-sense containing macrophages. In vitro fluorescent imaging confirmed V-sense (red) uptake by RAW macrophages (FIG. 15). […] The color spectrum indicates the concentration of V-sense, which is analogous to phagocytic myeloid cell density.
molecule,measurement,setting,value
"N.N.[Cl][Pt][Cl] [cisplatin, cis-diamminedichloroplatinum (II)]",DNA adduct formation relative to oxaliplatin,DNA,10 times
same,number of ICD hallmarks stimulated,cancer cells,2
"COc1cccc2c1C(=O)c1c(O)c3c(c(O)c1C2=O)C[C@@](O)(C(=O)CO)C[C@@H]3O[C@H]1C[C@H](N)[C@H](O)[C@H](C)O1 [DOX, doxorubicin]",IC50,[1],0.08 µg/mL
same,MTD,[2],6 mg/kg
"O=c1[nH]c(=O)n([C@@H]2O[C@H](CO)[C@@H](O)[C@@H]2F)cc1[124I] [^124I-FIAU, ^124I-2′-fluoro-2′-deoxy-5-iodo-1-beta-D-arabinofurariosyluracil]",increase in reporter expression,glioblastoma cells,28 fold
"IL-12: Proinflammatory Th1 cytokine interleukin-12 (protein, UniProt P29459 23-219; P29460 23-328, looked up) Interleukin-12 subunit alpha: RNLPVATPDPGMFPCLHHSQNLLRAVSNMLQKARQTLEFYPCTSEEIDHEDITKDKTSTVEACLPLELTKNESCLNSRETSFITNGSCLASRKTSFMMALCLSSIYEDLKMYQVEFKTMNAKLLMDPKRQIFLDQNMLAVIDELMQALNFNSETVPQKSSLEEPDFYKTKIKLCILLHAFRIRAVTIDRVMSYLNAS Interleukin-12 subunit beta: IWELKKDVYVVELDWYPDAPGEMVVLTCDTPEEDGITWTLDQSSEVLGSGKTLTIQVKEFGDAGQYTCHKGGEVLSHSLLLLHKKEDGIWSTDILKDQKEPKNKTFLRCEAKNYSGRFTCWWLTTISTDLTFSVKSSRGSSDPQGVTCGAATLSAERVRGDNKEYEYSVECQEDSACPAAEESLPIEVMVDAVHKLKYENYTSSFFIRDIIKPDPPKNLQLKPLKNSRQVEVSWEYPDTWSTPHSYFSLTFCVQVQGKSKREKKDRVFTDKTSATVICRKNASISVRAQDRYYSSSWSEWASVPCS",CD4+ and CD8+ T cells in the tumor,tumor immunocytes,increases CD4^+ and CD8^+ T cells
same,MDSC in the tumor,tumor immunocytes,decreases MDSC
same,frequency of phagocytic cells within the tumor periphery,4T1 tumor,increased the frequency of phagocytic cells
